Results published in publication PMC6510487 (Chemosensors (Basel, Switzerland), 2018).
Ends that are not written are not given here.

Legend:
[1] = system: human SIRPalpha; test: Fluorescence response of CD47 mimetic probe upon hSIRPalpha binding; conditions: 150 μM probe, 50 μM human SIRPalpha
[2] = system: human SIRPalpha; test: Microscale thermophoresis binding of CD47 mimetic probe to hSIRPalpha; conditions: 150 μM probe, 50 μM human SIRPalpha

- fluorescence enhancement upon target binding to hSIRPalpha [1]: did not exhibit fluorescence enhancement
- binding to hSIRPalpha by MST [2]: could bind to hSIRPalpha
Sequence: EVTELTREGE [CD47 mimetic probe]
